Test results: patent publication US20210235699A1, “Adjuvant Compositions Comprising a Tetramethylguanidine and a 4-Isothiazolin-3-One” (Lonza, LLC, priority 2018, published 2021)
Entries after “also recorded” stand apart in the source; their conditions may differ. Where a name gives a salt, the structure may show the parent alone. Marks after values point to notes of the source that are not given here.

What was measured:
Type in all cases: cell-based
[1] = tested on: combined bacterial test inoculum: Acinetobacter calcoaceticus, Escherichia coli, Pseudomonas aeruginosa, Enterobacter cloacae; test: Bacterial challenge test (ASTM D2574-97, modified) in standard water based interior paint; parameters: key to Streak plate rank, 1st inoculation 24 h / Streak plate rank, 1st inoculation 72 h / Streak plate rank, 2nd inoculation 72 h / Streak plate rank, 3rd inoculation 24 h: 0 = no growth; 1 = 1-5 Colony Forming Unit (cfu); 2 = 6-15 cfu; 3 = 16-30 cfu; 4 = 31-45 cfu; 5 = greater than 45 cfu; 5c = Confluent Growth; conditions: for Dilution plate count, 3rd inoculation 72 h / Streak plate rank, 3rd inoculation 24 h: inoculum 2.50%; for Streak plate rank, 2nd inoculation 72 h: inoculum 5%; for Streak plate rank, 1st inoculation 24 h / Streak plate rank, 1st inoculation 72 h: inoculum 10%; for effect of guanidine on bactericidal activity of 4-isothiazolin-3-ones (in words): in combination with BIT and BBIT, Tables 3 and 5
Description: (§1) The following bacterial and fungal challenge tests were performed to ascertain whether low concentrations of 4-isothiazolin-3-one biocidal active compounds, pyrithione, coumarin or guanidine adjuvant are sufficient to prevent microbial contamination of final products when deliberately inoculated with spoilage microbes.
(§2) The tests were performed according to ASTM standard D2574-97 (Standard Test Method for Resistance of Emulsion Paints in the Container to Attack by Microorganisms, ASTM International, West Conshohocken, Pa.), with higher inoculation volumes and frequency. A standard water based interior paint was used as the test substrate. Sample sizes of 20 g test substrate were used and the test samples were prepared in a sterile 30 mL square Nalgene bottle.
The bacteria were grown on pH 5, 7, or 9 Trypticase Soy Agar (TSA) lawns. The bacteria were grown individually on TSA and harvested by using sterile buffered water. The bacterial lawns were washed off with 30 mL of sterile water and an equal volume of each individual cell suspension was withdrawn from each serum bottle to make a combined cell suspension. Combined bacterial suspension were about 10^7 cfu/mL, which provides about 10^6 cfu/mL in the sample.
(§3) The following microorganisms were used for inoculation of the tested samples:
(§4) For the bacterial challenge testing, each sample was inoculated with a combined bacterial test inoculum volume equivalent to 10% of the total initial sample volume for the initial inoculation, 5% of the total initial sample volume for the second inoculation and 2.5% of the total initial sample volume for the third inoculation. Inoculum volumes for the fungal challenge tests were 2%, 1% and 0.5% of the total initial sample volume, respectively. Samples were inoculated every 96 h.
(§5) Concentrations of biocidal active compounds and adjuvants refer to the final concentration in the test samples prior to the first inoculation.
(§6) The efficacy of the added agent in each sample was monitored by means of a streak plate test after 24 hours (all inoculations) and 72 hours of inoculation (first and second inoculation). At 72 hours of the third inoculation performed, a dilution plate count was performed in order to obtain a quantitative measurement of contamination (cfu/mL). A count of less than 10 colony forming units per mL ([…]) is considered to show no measurable contamination. For the streak plate tests, bacterial samples were streaked on Tryptic Soy Agar (TSA) and incubated for 48 hours at 30° C. before reading. Fungal samples were streaked on Potato Dextrose Agar (PDA) and incubated for 5 days at 25° C. before reading.
(§7) The streak plates were ranked from 0-5c according to the degree of microbial growth:
(§8) The challenge tests were performed as described above.

[2] = tested on: fungal test inoculum: Aspergillus niger, Penicillium funiculosum, Candida albicans; test: Fungal challenge test (ASTM D2574-97, modified) in standard water based interior paint; parameters: key to Streak plate rank, 2nd inoculation 72 h / Streak plate rank, 1st inoculation 72 h / Streak plate rank, 1st inoculation 24 h / Streak plate rank, 2nd inoculation 24 h / Streak plate rank, 3rd inoculation 24 h: 0 = no growth; 1 = 1-5 Colony Forming Unit (cfu); 2 = 6-15 cfu; 3 = 16-30 cfu; 4 = 31-45 cfu; 5 = greater than 45 cfu; 5c = Confluent Growth; conditions: for Dilution plate count, 3rd inoculation 72 h / Streak plate rank, 3rd inoculation 24 h: inoculum 0.50%; for Streak plate rank, 1st inoculation 24 h / Streak plate rank, 1st inoculation 72 h: inoculum 2%; for effect of guanidine on fungicidal activity of 4-isothiazolin-3-ones (in words): in combination with BIT and BBIT, Tables 4 and 6
Description: as §1, §2
Fungal lawns were grown on Potato Dextrose Agar (PDA) or Sabouraud Dextrose Agar (SAB). Individual fungal spore suspensions were harvested by adding 10 mL of sterile 0.05% Triton X to fungal lawns. The lawns were then gently agitated by rubbing a sterile swab on the lawn, being careful not to puncture the agar. The liquid was then aseptically transferred to a sterile bottle containing sterile glass beads. The top of the bottle was closed and the bottle shaken vigorously to break up any chunks in the suspension. The shaken spore suspension was decanted through sterile fibers into another sterile bottle. The decanted spore suspension was counted using a hemocytometer. Once the spore counts were determined, each suspension was diluted in order to obtain 10^6 spore/mL. Each diluted fungal suspension was poured into a sterile container.
as §3
as §4, with “Inoculum volumes for the fungal challenge tests were 2%, 1% and 0.5% of the total initial sample volume, respectively.” left out
as §5, §6, §7, §8

[3] = tested on: bacterial test inoculum (Acinetobacter calcoaceticus, Escherichia coli, Pseudomonas aeruginosa, Enterobacter cloacae); test: Quick kill testing in pre-contaminated standard interior paint (dilution-plate counts)
Description: An additional test was performed to analyze how quickly the tested biocidal compositions will recover a sample from microbial spoilage. For each sample, 20 g of a pre-contaminated standard interior paint formulation serving as a test substrate was weighed into a sterile container. All samples were contaminated with the bacterial test inoculum described above (10% of the of the total initial sample volume).
A dilution-plate count was performed on the untreated sample (0 hour time point) and a biocidal composition added aseptically to each sample. Subsequent to this treatment, further dilution-plate counts were performed at fixed time intervals (time points are given in hours) on each sample, including an untreated negative control. All samples were incubated at 30° C.±2° C.
Concentrations in ppm refer to final concentrations of the biocidal compositions in the test samples. The relative amounts of active compounds and adjuvant in the tested biocidal compositions were as indicated below: […]

[Na+].[O-][n+]1ccccc1[S-] [NaPT, sodium pyrithione]
Dilution plate count, 3rd inoculation 72 h ([1]; 80 ppm): 2.2 × 10^7 cfu/mL
Streak plate rank, 3rd inoculation 24 h ([1]; 80 ppm): 5c
Streak plate rank, 2nd inoculation 72 h ([1]; 80 ppm): 5c
Streak plate rank, 1st inoculation 24 h ([1]; 80 ppm): 5c
Streak plate rank, 1st inoculation 72 h ([1]; 80 ppm): 5c
Dilution plate count, 3rd inoculation 72 h ([2]; 80 ppm): <10 cfu/mL
Streak plate rank, 3rd inoculation 24 h ([2]; 80 ppm): 0
Streak plate rank, 2nd inoculation 24 h ([2]; 80 ppm, inoculum 1%): 0
Streak plate rank, 2nd inoculation 72 h ([2]; 80 ppm, inoculum 1%): 0
Streak plate rank, 1st inoculation 24 h ([2]; 80 ppm): 0
Streak plate rank, 1st inoculation 72 h ([2]; 80 ppm): 0

CN(C)C(=N)N(C)C [TMG, 1,1,3,3-tetramethylguanidine]
Dilution plate count, 3rd inoculation 72 h ([1]; 750 ppm): 1.7 × 10^5 cfu/mL
Streak plate rank, 3rd inoculation 24 h ([1]; 750 ppm): 5c
Streak plate rank, 2nd inoculation 72 h ([1]; 750 ppm): 5c
Streak plate rank, 1st inoculation 24 h ([1]; 750 ppm): 5 (5 = greater than 45 cfu)
Streak plate rank, 1st inoculation 72 h ([1]; 750 ppm): 5c
Dilution plate count, 3rd inoculation 72 h ([1]; 1000 ppm): 2.1 × 10^6 cfu/mL
Streak plate rank, 3rd inoculation 24 h ([1]; 1000 ppm): 5c
Streak plate rank, 2nd inoculation 72 h ([1]; 1000 ppm): 5c
Streak plate rank, 1st inoculation 24 h ([1]; 1000 ppm): 5 (5 = greater than 45 cfu)
Streak plate rank, 1st inoculation 72 h ([1]; 1000 ppm): 5 (5 = greater than 45 cfu)
Dilution plate count, 3rd inoculation 72 h ([1]; 1250 ppm): 6.6 × 10^6 cfu/mL
Streak plate rank, 3rd inoculation 24 h ([1]; 1250 ppm): 5c
Streak plate rank, 2nd inoculation 72 h ([1]; 1250 ppm): 5c
Streak plate rank, 1st inoculation 24 h ([1]; 1250 ppm): 0
Streak plate rank, 1st inoculation 72 h ([1]; 1250 ppm): 0
Dilution plate count, 3rd inoculation 72 h ([1]; 1500 ppm): <10 cfu/mL
Streak plate rank, 3rd inoculation 24 h ([1]; 1500 ppm): 3 (3 = 16-30 cfu)
Streak plate rank, 2nd inoculation 72 h ([1]; 1500 ppm): 0
Streak plate rank, 1st inoculation 24 h ([1]; 1500 ppm): 0
Streak plate rank, 1st inoculation 72 h ([1]; 1500 ppm): 0
effect of guanidine on bactericidal activity of 4-isothiazolin-3-ones (in words) [1]: significantly improved
Dilution plate count, 3rd inoculation 72 h ([2]; 750 ppm): <10 cfu/mL
Streak plate rank, 3rd inoculation 24 h ([2]; 750 ppm): 3 (3 = 16-30 cfu)
Streak plate rank, 1st inoculation 24 h ([2]; 750 ppm): 4 (4 = 31-45 cfu)
Streak plate rank, 1st inoculation 72 h ([2]; 750 ppm): 0
Streak plate rank, 2nd inoculation 72 h ([2]; 750 ppm, inoculum added was 2%): 1** (1 = 1-5 Colony Forming Unit (cfu))
Dilution plate count, 3rd inoculation 72 h ([2]; 1000 ppm): <10 cfu/mL
Streak plate rank, 3rd inoculation 24 h ([2]; 1000 ppm): 3 (3 = 16-30 cfu)
Streak plate rank, 1st inoculation 24 h ([2]; 1000 ppm): 4 (4 = 31-45 cfu)
Streak plate rank, 1st inoculation 72 h ([2]; 1000 ppm): 0
Streak plate rank, 2nd inoculation 72 h ([2]; 1000 ppm, inoculum added was 2%): 0**
Dilution plate count, 3rd inoculation 72 h ([2]; 1250 ppm): <10 cfu/mL
Streak plate rank, 3rd inoculation 24 h ([2]; 1250 ppm): 3 (3 = 16-30 cfu)
Streak plate rank, 1st inoculation 24 h ([2]; 1250 ppm): 2 (2 = 6-15 cfu)
Streak plate rank, 1st inoculation 72 h ([2]; 1250 ppm): 0
Streak plate rank, 2nd inoculation 72 h ([2]; 1250 ppm, inoculum added was 2%): 0**
Dilution plate count, 3rd inoculation 72 h ([2]; 1500 ppm): <10 cfu/mL
Streak plate rank, 3rd inoculation 24 h ([2]; 1500 ppm): 3 (3 = 16-30 cfu)
Streak plate rank, 1st inoculation 24 h ([2]; 1500 ppm): 2 (2 = 6-15 cfu)
Streak plate rank, 1st inoculation 72 h ([2]; 1500 ppm): 0
Streak plate rank, 2nd inoculation 72 h ([2]; 1500 ppm, inoculum added was 2%): 0**
effect of guanidine on fungicidal activity of 4-isothiazolin-3-ones (in words) [2]: enhancing effect; also recorded: significantly improved
Dilution-plate count T4 ([3]; Table 9, 940 ppm, 4 hours after treatment, 30° C.): 1.19 × 10^7
Dilution-plate count T8 ([3]; Table 9, 940 ppm, 8 hours after treatment, 30° C.): 1.02 × 10^7
Dilution-plate count T24 ([3]; Table 9, 940 ppm, 24 hours after treatment, 30° C.): 4.0 × 10^6
quick kill performance (in words) ([3]; Tables 8 and 9): markedly accelerated the recovery

CNC(=N)N [methylguanidine HCl, Methylguanidine HCl]
effect of guanidine on bactericidal activity of 4-isothiazolin-3-ones (in words) [1]: not achieved
effect of guanidine on fungicidal activity of 4-isothiazolin-3-ones (in words) [2]: not achieved
